Experimental data from patent US10308631B2, “Selective anti-cancer compounds” (NATIONAL UNIVERSITY OF SINGAPORE, priority 2015, dated 2019).

What was measured:
Type in all cases: cell-based, human
[1] = system: p53 and p21 in oncogene-transformed BJ cells; assay: Immunoblot analysis of p53 and p21; details: 2.5 and 5 μM, 24 h or 48 h
Protocol: (§1) A: is output from a FACS analysis of isogenic-non-transformed, without (panels a-c) (WT) or with (panels d-f) shRNA-mediated knockdown of p53 (p53KD), and oncogene-transformed BJ cells (panels g-i), each treated with 0, 5 or 2.5 μM Compound 1 (a131) for 24 h. Cells were doubly stained with PI (horizontal axis) and BrdU (vertical axis). The BrdU-positive population in panels a-c are indicated as arrows. B: is a diagrammatic representation of an immunoblot analysis showing isogenic non-transformed (normal) and oncogene-transformed BJ cells (transformed) treated with Compound 1 (a131) at 0, 2.5 or 5 μM for 24 h or 48 h. Cells were harvested and total lysates were analysed by detecting p53 and p21. Antibodies raised against β-actin were used as an internal loading control. C and D are histograms showing the percentage of bromodeoxyuracil (BrdU)-positive non-transformed (normal) BJ cells. C: Cells were treated with Group 1 Compound 1 (a131) at 2.5 and 5 μM, Compound 23 (b36) at 2.5 and 5 μM, and Compound 21 (b35) at 5 μM, and Group 2 Compound 25 (a166) at 2.5 and 5 μM, for 24 h. Cells were doubly stained with propidium iodide (PI) and BrdU, and subjected to FACS analysis. The BrdU-positive population are plotted as bars. […]

[2] = system: p53 and p21 in non-transformed BJ cells; assay: Immunoblot analysis of p53 and p21; details: 2.5 and 5 μM, 24 h or 48 h
Protocol: as §1

[3] = system: non-transformed normal BJ cells; assay: Reversibility of cell cycle arrest after wash-out (cell counting); details: 5 μM for 2, 3, 6 or 11 days, then wash-out
Description: Non-transformed normal BJ cells were synchronized in G1 phase of the cell cycle by culturing in serum-starved conditions (0.1% FBS) for 2 days. Subsequently, cells were synchronously released in fresh media with 10% FBS and further treated with Compound 1 (a131) for 2, 3, 6 or 11 days. After treatment for the required amount of time, Compound 1 (a131) was removed by washing cells twice with fresh media, and culturing of the washed cells was continued in fresh media for up to 11 days. Cells were harvested and total numbers of cells, counted using automated Sceptor cell counter, were plotted with standard deviation (triplicates).
As shown in Biology Examples 5 and 7, Compound 1 and its derivatives, which inhibit both lysosome function and mitosis, induce cell death only in transformed BJ cells, while inducing cell cycle arrest in isogenic non-transformed BJ cells. However, it was not fully clear if the cell cycle arrest was permanent or reversible. Therefore, to evaluate whether the effect was permanent or reversible, non-transformed normal BJ cells were synchronized in the G1 phase of the cell cycle by culturing them in DMEM media with 0.1% FBS for 2 days. […] At various time-points, the adherent cells were harvested with trypsin (Invitrogen) and the total number of cells was counted using automated Sceptor cell counter (Millipore).

N#C/C(=C\c1cccc2cnccc12)c1c[nH]c2ccccc12 [Compound 1, (Z)-2-(1H-indol-3-yl)-3-(isoquinolin-5-yl)acrylonitrile]
protein expression levels of p53 and p21 [1]: did not alter the protein expression levels of p53 and p21
protein levels of p53 and p21 [2]: increased protein levels of p53
recovery of proliferation after removal of compound [3]: removal of Compound 1 from the media is sufficient to enable these cells to recover from cell cycle arrest
